According to paper PMC12257397, “Scaffold Hopping Strategy toward New 4‑Aminoquinazolines Active Against Extracellular and Intracellular Mycobacterium tuberculosis” (ACS Medicinal Chemistry Letters, 2025):
Converted amounts (≈) assume the structure as drawn.

Assays:
[1] = system: M. tuberculosis LP-0106898-RM1 (QcrB T313I); format: cell-based, Mycobacterium tuberculosis
[2] = system: M. tuberculosis LP-0497754-RM301, MmpL3 triple mutant (F255L, V646M, F644I); format: cell-based, Mycobacterium tuberculosis
[3] = system: M. tuberculosis qcrCAB (A178T); conditions: given in Figure 1A; cited from earlier work
[4] = system: M. tuberculosis QcrB M342T; conditions: given in Figure 1A; cited from earlier work
[5] = system: M. tuberculosis QcrB T313I; conditions: given in Figure 1A; cited from earlier work

| Structure (SMILES) | MIC QcrBT313I [1] [µM] | MIC MmpL3 (F255L, V646M, F644I) [2] [µM] | IC50 [3] [nM] | MIC QcrB M342T [4] [µM] | MIC QcrB T313I [5] [µM] |
| --- | --- | --- | --- | --- | --- |
| CCc1ccc(CCNc2nc(C)nc3ccc(Br)cc23)cc1 [16c] | 2.4 (≈ 0.889 µg/mL) | 3.4 (≈ 1.26 µg/mL) |  |  |  |
| Cc1nc(NCCc2ccc3ccccc3c2)c2cc(Br)ccc2n1 [17c] | 2.2 (≈ 0.863 µg/mL) | 2.6 (≈ 1.02 µg/mL) |  |  |  |
| Cc1nc(NCCc2ccccc2)c2cc(I)ccc2n1 [9d] | 0.67 (≈ 0.261 µg/mL) | 0.89 (≈ 0.346 µg/mL) |  |  |  |
| CCc1nc(NCCCc2ccccc2)c2cc(C)sc2n1 [3 (CWHM-1023)] |  |  | > 500 |  |  |
| Cc1nc(NCCc2ccc(Cl)cc2)c2cc(I)ccc2n1 [11d] | 0.80 (≈ 0.339 µg/mL) | 1.0 (≈ 0.424 µg/mL) |  |  |  |
| Cc1nc(NCCc2ccc(OC(F)(F)F)cc2)c2cc(Br)ccc2n1 [13c] | 4.0 (≈ 1.7 µg/mL) | 5.4 (≈ 2.3 µg/mL) |  |  |  |
| Cc1nc(NCCc2ccc(OC(F)(F)F)cc2)c2cc(I)ccc2n1 [13d] | 5.2 (≈ 2.46 µg/mL) | 8.3 (≈ 3.93 µg/mL) |  |  |  |
| COc1ccc(CCNc2nc(C)nc3ccc(I)cc23)cc1 [10d] | 1.2 (≈ 0.503 µg/mL) | 1.5 (≈ 0.629 µg/mL) |  |  |  |
| Cc1nc(NCCCc2ccccc2)c2cc(I)ccc2n1 [18d] | 0.48 (≈ 0.194 µg/mL) | 0.64 (≈ 0.258 µg/mL) |  |  |  |
| FC(F)(F)c1ccc(CCNc2cc(-c3ccccn3)nc3ncnn23)cc1 [1 (TAP)] |  |  |  | 10 (≈ 3.84 µg/mL) | > 20 |
| CCc1ccc(CCNc2nc(C)nc3ccc(I)cc23)cc1 [16d] | 1.8 (≈ 0.751 µg/mL) | 2.3 (≈ 0.96 µg/mL) |  |  |  |
| COc1ccc2nc(C)nc(NCCCc3ccccc3)c2c1 [18b] | 1.3 (≈ 0.4 µg/mL) | 1.5 (≈ 0.461 µg/mL) |  |  |  |
| Cc1nc(NCCCc2ccccc2)c2ccccc2n1 [18a] | 1.0 (≈ 0.277 µg/mL) | 1.2 (≈ 0.333 µg/mL) |  |  |  |
| c1ccc(CCCNc2ncnc3ccccc23)cc1 [18e] | 29.0 (≈ 7.64 µg/mL) | 39.0 (≈ 10.3 µg/mL) |  |  |  |
| CO[C@H]1/C=C/O[C@@]2(C)Oc3c(C)c(O)c4c(O)c(c(/C=N/N5CCN(C)CC5)c(O)c4c3C2=O)NC(=O)/C(C)=C\C=C\[C@H](C)[C@H](O)[C@@H](C)[C@@H](O)[C@@H](C)[C@H](OC(C)=O)[C@@H]1C [20 (RIF), rifampicin, reference compound] | 0.010 (≈ 0.00823 µg/mL) | 0.030 (≈ 0.0247 µg/mL) |  |  |  |
| Cc1ccc(CCNc2nc(C)nc3ccc(I)cc23)cc1 [15d] | 0.70 (≈ 0.282 µg/mL) | 0.89 (≈ 0.359 µg/mL) |  |  |  |
| Cc1nc(NCCc2ccc3ccccc3c2)c2cc(I)ccc2n1 [17d] | 1.2 (≈ 0.527 µg/mL) | 1.4 (≈ 0.615 µg/mL) |  |  |  |
| CCc1nc2ccc(C)cc2n1CCCNc1ccccc1 [2 (FABA)] |  |  |  | 4.1 (≈ 1.2 µg/mL) | 8.7 (≈ 2.55 µg/mL) |
| Cc1nc(NCCCc2ccccc2)c2cc(Br)ccc2n1 [18c] | <0.19 | < 0.19 |  |  |  |
